Results reported in patent US9115151B2, “Substituted 2,10-dihydro-9-oxa-1,2,4A-triazaphenanthren-3-ones and uses thereof” (AbbVie Inc., priority 2012, dated 2015).
Counter-ions that a name gives are not always drawn.

Legend:
[1] = test system: CD3/CD28 induced IL-2 in human T-Blasts; assay: T-Blasts CD3/CD28 induced IL-2 assay; assay type: cell-based; details: read-out: CD3/CD28-stimulated IL2 in T-blasts EC50
Protocol: T-Blasts CD3/CD28 Induced IL-2 Assay
Human T-Blasts are generated using PHA following standard protocols. T-Blasts are freeze aliquoted and vials thawed as required. […] Seed 2×10^5/100 μL cell suspension per well in flat bottomed 96 well plate. Compound dilutions are prepared from 100% DMSO stocks. A total of 8 serial dilutions are made (1/3 in 100% DMSO). Compounds are diluted 1/50 in growth medium to prepare 4× stocks of each tested concentration. 50 μL from each 4× stock concentration is added to the 100 μL cell suspension and incubated for 30 minutes prior stimulus addition. A 4× stimulus stock is prepared using anti-CD3+anti-CD28 antibodies. Antibody mix is added to the cell/compounds suspension in 50 μL at 5 μg/mL final concentration. Compounds are tested in duplicates. Plates are transferred to 37° C./CO2 incubator for 24 hours. After incubation 130 μL of supernatant is collected for IL-2 determination while MTT toxicity analysis is performed on remaining cells/medium.

PKCθ = biological target: T1, PKCθ (Homo sapiens, UniProt Q04759); assay: In vitro enzyme assay (time-resolved fluorescence kinase assay), PKCθ, 100 μM ATP; assay type: biochemical
T1 construct: His6; purchased Millipore; host or cells: baculovirus in Sf21 cells
Protocol: (§1) PKC kinase activity was assayed by time-resolved fluorescence in vitro kinase assay. Unless otherwise indicated, all reagents used for enzyme assays were obtained from Sigma. Specifically, 5 μL N- or C-terminal His6-tagged, recombinant, human PKC, expressed by baculovirus in Sf21 cells (Millipore) was mixed with 5 μL inhibitor (various concentrations, 5% final DMSO), 5 μL Bio-cdc peptide (Biotin-Ahx-[…], 2 μM final concentration, New England Peptide) and 5 μL of ATP (100 μM or 1000 μM final concentration) in 1× reaction buffer, 20 μL final volume.
(§2) Following a sixty minute incubation at room temperature, the reaction was quenched with 5 μL of 0.5 M EDTA pH 7.5.
(§3) Background counts from a minus enzyme control is subtracted from all data. Data (after background correction) are converted to percent activity by dividing by the signal obtained from PKC without drug sample.

PKCα = biological target: T2, PKCα (Homo sapiens, UniProt P17252); assay: In vitro enzyme assay (time-resolved fluorescence kinase assay), PKCα, 100 μM ATP; assay type: biochemical; details: 100 μM ATP; read-out: PKCα enzyme IC50
T2 construct: His6; purchased Millipore; host or cells: baculovirus in Sf21 cells
Protocol: as §1, §2, §3

T1 sequence (Q04759 whole entry): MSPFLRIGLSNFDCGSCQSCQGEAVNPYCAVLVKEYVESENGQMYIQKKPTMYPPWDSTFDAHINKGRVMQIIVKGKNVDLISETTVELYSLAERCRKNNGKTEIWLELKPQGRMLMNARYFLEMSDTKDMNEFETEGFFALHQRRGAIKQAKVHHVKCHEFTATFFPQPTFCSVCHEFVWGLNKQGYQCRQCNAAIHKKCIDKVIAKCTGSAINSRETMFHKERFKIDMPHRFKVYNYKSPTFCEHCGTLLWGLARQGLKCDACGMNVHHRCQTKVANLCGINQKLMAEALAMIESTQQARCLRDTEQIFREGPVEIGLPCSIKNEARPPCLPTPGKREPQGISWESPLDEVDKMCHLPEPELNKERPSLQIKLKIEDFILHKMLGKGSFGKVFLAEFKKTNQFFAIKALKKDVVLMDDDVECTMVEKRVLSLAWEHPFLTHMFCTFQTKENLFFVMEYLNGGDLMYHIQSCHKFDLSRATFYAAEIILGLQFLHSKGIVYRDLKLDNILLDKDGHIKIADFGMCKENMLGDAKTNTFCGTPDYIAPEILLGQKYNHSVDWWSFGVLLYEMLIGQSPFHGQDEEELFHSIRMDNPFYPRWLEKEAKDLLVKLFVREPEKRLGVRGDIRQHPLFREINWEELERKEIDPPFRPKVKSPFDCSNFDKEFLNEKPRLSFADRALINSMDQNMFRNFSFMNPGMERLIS

Row | SMILES | EC50 [1] [nM] | IC50 (PKCθ) [nM] | IC50 (PKCα) [nM]
1 | C[C@@H]1C(=O)NN=C2COc3cc(-c4ccccc4F)c(N(C)C4(C)CN(C(=O)CN(C)C)C4)cc3N21 [Example 187] | 250 to 1000 | < 250 | 1000 to 10000
2 | C[C@@H]1C(=O)NN=C2COc3cc4ccn(C5(C)CN(C)C5)c4cc3N21 [Example 160, (R)-10-(1,3-Dimethyl-azetidin-3-yl)-1-methyl-3,5-dihydro-10H-6-oxa-3,4,10,11b-tetraaza-cyclopenta[b]phenanthren-2-one hydrochloride] | < 250 | < 250 | 250 to 1000
3 | C[C@H](c1ccc2c(c1)N1C(=NNC(=O)[C@H]1C)CO2)C1CNC1 [Example 110] | 250 to 1000 | 250 to 1000 | 1000 to 10000
4 | C[C@H]1C(=O)NN=C2COc3cc(-c4ccccc4)c(NC4CNC4)cc3N21 (single isomer, unassigned) [Example 1-2, trifluoroacetic acid] | 1000 to 10000 | 250 to 1000 | 1000 to 10000
5 | CC1C(=O)NN=C2COc3ccc(C(C)C4(C)CNC4)cc3N21 (stereo not drawn) [Example 129, 1-Methyl-9-(1-(3-methylazetidin-3-yl)ethyl)-3,5-dihydrobenzo[5,6][1,4]oxazino[3,4-c][1,2,4]triazin-2(1H)-one trifluoroacetic acid] | 250 to 1000 | < 250 | 1000 to 10000
6 | C[C@@H]1C(=O)NN=C2COc3cc(-c4ccccc4F)c(N(C)[C@@]4(C)CCN(C)C4)cc3N21 (single isomer, unassigned) [Example 198-3] | < 250 | < 250 | 250 to 1000
7 | CC1C(=O)NN=C2COc3cc(-c4ccc5ncsc5c4)c(NC4CNC4)cc3N21 (racemic) [Example 38] | 250 to 1000 | < 250 | 1000 to 10000
8 | CC1C(=O)NN=C2COc3cc4ccn(C5CN(C)C5)c4cc3N21 (stereo not drawn) [compound 161] | 250 to 1000 | < 250 | 1000 to 10000
9 | CC(C)c1cc2c(cc1[C@@H](C)C1(C)CN(CCO)C1)N1C(=NNC(=O)[C@H]1C)CO2 [Example 138, (R)-6-{(R)-1-[1-(2-Hydroxy-ethyl)-3-methyl-azetidin-3-yl]-ethyl}-7-isopropyl-4-methyl-2,10-dihydro-9-oxa-1,2,4a-triaza-phenanthren-3-one hydrochloric acid] | 250 to 1000 | < 250 | 250 to 1000
10 | CC1C(=O)NN=C2COc3cc(-c4cccc(C#N)c4)c(N(C)C4(C)CN(C)C4)cc3N21 (stereo not drawn) [Example 170] | < 250 | < 250 | 1000 to 10000
11 | CC1C(=O)NN=C2COc3cc(C4CC4)c(NC4CNC4)cc3N21 (racemic) [Example 49] | < 250 | < 250 | 1000 to 10000
12 | C[C@@H]1C(=O)NN=C2COc3cc(-c4ccccc4F)c([C@@H](C)C4(C)CN(CC(C)(C)O)C4)cc3N21 [Example 143] | < 250 | < 250 | 250 to 1000
13 | C[C@@H]1C(=O)NN=C2COc3cc(-c4c(N5CCNCC5)ccc(Cl)c4Cl)ccc3N21 [Example 132] | 250 to 1000 | < 250 | 1000 to 10000
14 | CC1C(=O)NN=C2COc3cc(-c4ccc(C#N)cc4)c(NC4CNC4)cc3N21 (racemic) [Example 41] | 250 to 1000 | 250 to 1000 | 1000 to 10000
15 | C[C@@H]1CN(CCO)CC[C@@H]1c1cc2c(cc1-c1ccccc1F)OCC1=NNC(=O)[C@@H](C)N12 [Example 207] | 250 to 1000 | < 250 | 1000 to 10000
16 | C[C@@H]1C(=O)NN=C2COc3cc(-c4ccccc4CO)c([C@@H](C)C4(C)CN(C)C4)cc3N21 [Example 135] | < 250 | < 250 | 250 to 1000
17 | Cc1cccc(-c2cc3c(cc2NC2CNC2)N2C(=NNC(=O)C2C)CO3)c1 (racemic) [Example 22] | < 250 | < 250 | 1000 to 10000
18 | CC1C(=O)NN=C2COc3ccc(C4CCNC(Cc5ccccc5)C4)cc3N21 (stereo not drawn) [Example 86, 9-(2-Benzylpiperidin-4-yl)-1-methyl-3,5-dihydrobenzo[5,6][1,4]oxazino[3,4-c][1,2,4]triazin-2(1H)-one trifluoroacetic acid] | < 250 | < 250 | 1000 to 10000
19 | C[C@@H]1C(=O)NN=C2COc3cc(-c4ccccc4CO)c(N(C)C4(C)CN(CCO)C4)cc3N21 [Example 195] | < 250 | < 250 | 1000 to 10000

Row | SMILES | EC50 [1] [nM] | IC50 (PKCθ) [nM] | IC50 (PKCα) [nM]
20 | Cc1ccc(-c2cc3c(cc2NC2CNC2)N2C(=NNC(=O)C2C)CO3)cc1 (racemic) [Example 29] | < 250 | < 250 | 1000 to 10000
21 | COc1ccccc1-c1cc2c(cc1NC1CNC1)N1C(=NNC(=O)C1C)CO2 (racemic) [Example 34] | 250 to 1000 | < 250 | 1000 to 10000
22 | C[C@@H]1C(=O)NN=C2COc3cc(-c4ccccc4F)c(N(C)C4(C)CN(C(=O)CCN(C)C)C4)cc3N21 [Example 185] | < 250 | < 250 | 250 to 1000
23 | C[C@@H]1C(=O)NN=C2COc3cc(-c4ccccc4F)c(N(C)C4(C)CN(C[C@@H](C)O)C4)cc3N21 [Example 189] | < 250 | < 250 | 250 to 1000
24 | Cc1cc2c(cc1N(C)C1CNC1)N1C(=NNC(=O)C1C)CO2 (stereo not drawn) [Example 55, 6-(Azetidin-3-yl-methyl-amino)-4,7-dimethyl-2,10-dihydro-9-oxa-1,2,4a-triaza-phenanthren-3-one trifluoroacetic acid] | 1000 to 10000 | 250 to 1000 | 1000 to 10000
25 | Cc1ccc(-c2cc3c(cc2NC2CNC2)N2C(=NNC(=O)C2C)CO3)c(F)c1 (racemic) [Example 12] | < 250 | < 250 | 1000 to 10000
26 | C[C@@H]1C(=O)NN=C2COc3cc(-c4cccc(CO)c4)c(N(C)C4(C)CN(C)C4)cc3N21 [Example 179] | < 250 | < 250 | 250 to 1000
27 | CC(C)c1cc2c(cc1C1CCNCC1)N1C(=NNC(=O)[C@H]1C)CO2 [Example 208] | < 250 | < 250 | 1000 to 10000
28 | [2H]c1cn(C2(C)CNC2)c2cc3c(cc12)OCC1=NNC(=O)C(C)N13 (stereo not drawn) [Example 149, 8-Deuterated-1-methyl-10-(3-methyl-azetidin-3-yl)-3,5-dihydro-10H-6-oxa-3,4,10,11b-tetraaza-cyclopenta[b]phenanthren-2-one hydrochloride] | < 250 | < 250 | 1000 to 10000
29 | C[C@@H]1C(=O)NN=C2COc3cc(-c4ccccc4Cl)c(C4CCNCC4)cc3N21 [Example 210] | < 250 | < 250 | 1000 to 10000
30 | C[C@@H]1C(=O)NN=C2COc3cc(-c4ccccc4F)c(N4CCN(C)C[C@@H]4C)cc3N21 [Example 231] | < 250 | < 250 | 250 to 1000
31 | CC1C(=O)NN=C2COc3ccc(C4CCNCC4)cc3N21 (stereo not drawn) [Example 71, 4-Methyl-6-piperidin-4-yl-2,10-dihydro-9-oxa-1,2,4a-triaza-phenanthren-3-one trifluoroacetic acid] | < 250 | < 250 | 1000 to 10000
32 | C[C@@H]1C(=O)NN=C2COc3cc(C4=CCC(F)(F)CC4)c(N(C)C4(C)CN(C)C4)cc3N21 [Example 182] | 250 to 1000 | < 250 | 1000 to 10000
33 | CC(C)c1cc2c(cc1NC1CNC1)N1C(=NNC(=O)[C@H]1C)CO2 (single isomer, unassigned) [Example 57-1, trifluoroacetic acid] | < 250 | < 250 | 1000 to 10000
34 | CC1C(=O)NN=C2COc3cc(-c4ccoc4)c(N(C)C4(C)CN(C)C4)cc3N21 (stereo not drawn) [Example 173] | 250 to 1000 | < 250 | 1000 to 10000
35 | CC[C@@H]1CNCCN1c1cc2c(cc1-c1ccccc1F)OCC1=NNC(=O)[C@@H](C)N12 [Example 226] | 250 to 1000 | < 250 | 250 to 1000
36 | C[C@@H]1C(=O)NN=C2COc3cc4c(cc3N21)N(C1(C)CNC1)CC4 [Example 159, 1-Methyl-10-(3-methyl-azetidin-3-yl)-3,5,9,10-tetrahydro-8H-6-oxa-3,4,10,11b-tetraaza-cyclopenta[b]phenanthren-2-one hydrochloride] | < 250 | < 250 | 1000 to 10000
37 | C[C@@H]1C(=O)NN=C2COc3cc(-c4ccccc4F)c([C@H]4CCNC4)cc3N21 [Example 214] | < 250 | < 250 | 1000 to 10000
38 | CC1C(=O)NN=C2COc3cc(-c4cccc(C#N)c4)c(NC4CNC4)cc3N21 (racemic) [Example 39] | 250 to 1000 | < 250 | 1000 to 10000
